According to patent publication US7994185B2, “Benzene sulfonamide thiazole and oxazole compounds” (Glaxo Smith Kline LLC, priority 2008, dated 2011):
Like-named read-outs stand apart in the source and are kept apart here.

What was measured:
[1] = molecular target: T1, BRAFV600E full-length (amino acids 2-766) (Homo sapiens, UniProt P15056, V600E); assay: B-Raf Accelerated MEK ATPase assay (BRAMA); assay type: biochemical; details: categorized
T1 construct: His6-tagged BRAFV600E full-length (amino acids 2-766); His6; made in house; host or cells: baculovirus expression system (insect cells)
T1 sequence (P15056 2-766 V600E): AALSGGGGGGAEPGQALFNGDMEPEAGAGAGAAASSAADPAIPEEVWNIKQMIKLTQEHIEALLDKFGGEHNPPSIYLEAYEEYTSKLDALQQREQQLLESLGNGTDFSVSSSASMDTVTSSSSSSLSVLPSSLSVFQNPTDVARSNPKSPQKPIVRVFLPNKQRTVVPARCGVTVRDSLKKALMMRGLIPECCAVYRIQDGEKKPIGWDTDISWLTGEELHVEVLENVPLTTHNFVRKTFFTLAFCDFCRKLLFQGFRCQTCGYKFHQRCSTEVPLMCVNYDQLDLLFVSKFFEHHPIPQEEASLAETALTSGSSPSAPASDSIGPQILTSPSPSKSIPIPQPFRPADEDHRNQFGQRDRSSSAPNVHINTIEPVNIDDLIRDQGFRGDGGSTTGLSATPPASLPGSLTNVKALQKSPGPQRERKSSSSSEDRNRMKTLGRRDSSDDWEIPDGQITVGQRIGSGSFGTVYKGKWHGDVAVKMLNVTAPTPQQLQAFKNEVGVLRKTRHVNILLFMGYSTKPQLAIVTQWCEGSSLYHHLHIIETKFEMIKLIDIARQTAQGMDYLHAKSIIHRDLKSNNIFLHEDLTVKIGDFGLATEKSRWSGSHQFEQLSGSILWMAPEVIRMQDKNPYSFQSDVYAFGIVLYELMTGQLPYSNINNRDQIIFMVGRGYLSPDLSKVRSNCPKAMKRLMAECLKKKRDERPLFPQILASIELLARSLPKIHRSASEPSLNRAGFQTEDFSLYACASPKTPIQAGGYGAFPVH
In short: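 Coupled-enzyme readout: ADP generated by MEK-mediated ATP hydrolysis, uncoupled from ERK phosphorylation, is linked to NADH oxidation through pyruvate kinase and lactate dehydrogenase.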

[2] = test system: Human colon tumor cells (Colo205); assay: Cell growth inhibition assay (CellTiter-Glo), Colo205; assay type: cell-based
In short: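 Colo205 (and SK-MEL-28) cells in RPMI with 10% FBS were exposed to 10-point 1:3 serial dilutions of compound at 0.2% final DMSO for 3 days at 37 °C. Total ATP, a surrogate for cell number, was read by CellTiter-Glo luminescence, with % growth inhibition relative to DMSO-treated wells.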

[3] = test system: Human melanoma cancer cells (SK-MEL-28); assay: Cell growth inhibition assay (CellTiter-Glo), SK-MEL-28; assay type: cell-based
[4] = B-Raf Activity, Table 1a, highest pIC50 for the one or more runs
[5] = Table 1b, later runs, average pIC50 for the one or more runs, read-out: B-Raf pIC50 (converted)
[6] = COLO 205, 72 h, Table 2a, 3 days incubation, read-out: Activity in Colo205 Tumor Cells
[7] = COLO 205, Table 2b, later runs, average for the one or more runs, categorized, read-out: IC50 for Colo205
[8] = SK-MEL-28, 72 h, Table 3a, 3 days incubation, read-out: Activity in SK-MEL-28 Tumor Cells
[9] = SK-MEL-28, Table 3b, later runs, average for the one or more runs, categorized, read-out: IC50 for SK-MEL-28
[10] = B-Raf pIC50, Table 1b, later runs, average pIC50 for the one or more runs

Structure (SMILES)	IC50 [1, 4]	IC50 [1, 5]	IC50 [2, 6]	IC50 [2, 7]	IC50 [3, 8]	IC50 [3, 9]	IC50 [1, 10]
CC(C)CNc1nccc(-c2scnc2-c2cccc(NS(=O)(=O)c3c(F)cccc3F)c2)n1 [Example 115, 2,6-Difluoro-N-[3-(5-{2-[(2-methylpropyl)amino]-4-pyrimidinyl}-1,3-thiazol-4-yl)phenyl]benzenesulfonamide]	> 1000 nM	3.16 to 31.6 nM	> 1000 nM	1000 to 10000 nM	> 1000 nM	1000 to 10000 nM	–
Nc1nccc(-c2sc(C3CCC3)nc2-c2cccc(NS(=O)(=O)c3cc(F)ccc3F)c2F)n1 [Example 117]	< 100 nM	–	< 100 nM	< 100 nM	< 100 nM	< 100 nM	≤ 3.16 nM
Nc1nccc(-c2sc(C3CCC3)nc2-c2cccc(NS(=O)(=O)c3c(F)cccc3F)c2F)n1 [Example 118]	< 100 nM	–	100 to 1000 nM	100 to 1000 nM	100 to 1000 nM	100 to 1000 nM	≤ 3.16 nM
CNc1nccc(-c2sc(C(C)C)nc2-c2ccc(F)c(NS(=O)(=O)c3c(F)cccc3F)c2)n1 [Example 119]	100 to 1000 nM	–	> 1000 nM	–	> 1000 nM	1000 to 10000 nM	31.6 to 1000 nM
CCCNc1nccc(-c2sc(C(C)C)nc2-c2ccc(F)c(NS(=O)(=O)c3cc(F)ccc3F)c2)n1 [Example 120]	< 100 nM	3.16 to 31.6 nM	100 to 1000 nM	100 to 1000 nM	100 to 1000 nM	100 to 1000 nM	–
CC(C)CNc1nccc(-c2sc(C(C)C)nc2-c2ccc(F)c(NS(=O)(=O)c3cc(F)ccc3F)c2)n1 [Example 121]	< 100 nM	3.16 to 31.6 nM	100 to 1000 nM	100 to 1000 nM	100 to 1000 nM	100 to 1000 nM	–
CC(C)c1nc(-c2ccc(F)c(NS(=O)(=O)c3cc(F)ccc3F)c2)c(-c2ccnc(NC3CC3)n2)s1 [Example 122]	< 100 nM	–	> 1000 nM	1000 to 10000 nM	> 1000 nM	1000 to 10000 nM	31.6 to 1000 nM
CC(C)c1nc(-c2ccc(F)c(NS(=O)(=O)c3cc(F)ccc3F)c2)c(-c2ccnc(NC3CCN(C)CC3)n2)s1 [Example 123]	< 100 nM	–	100 to 1000 nM	100 to 1000 nM	> 1000 nM	1000 to 10000 nM	31.6 to 1000 nM
CC(C)c1nc(-c2ccc(F)c(NS(=O)(=O)c3cc(F)ccc3F)c2)c(-c2ccnc(NC3CCN(C(=O)OC(C)(C)C)CC3)n2)s1 [Example 124]	< 100 nM	–	100 to 1000 nM	100 to 1000 nM	100 to 1000 nM	100 to 1000 nM	31.6 to 1000 nM
CC(C)c1nc(-c2ccc(F)c(NS(=O)(=O)c3cc(F)ccc3F)c2)c(-c2ccnc(NC3CCNCC3)n2)s1 [Example 125]	< 100 nM	3.16 to 31.6 nM	100 to 1000 nM	100 to 1000 nM	100 to 1000 nM	100 to 1000 nM	–
CC(C)c1nc(-c2ccc(F)c(NS(=O)(=O)c3cc(F)ccc3F)c2)c(-c2ccnc(NC3CCN(CCS(C)(=O)=O)CC3)n2)s1 [Example 126]	< 100 nM	–	100 to 1000 nM	100 to 1000 nM	100 to 1000 nM	100 to 1000 nM	31.6 to 1000 nM
CC(C)c1nc(-c2ccc(F)c(NS(=O)(=O)c3cc(F)ccc3F)c2)c(-c2ccnc(NCC3CCN(C(=O)OC(C)(C)C)CC3)n2)s1 [Example 127]	< 100 nM	–	> 1000 nM	1000 to 10000 nM	> 1000 nM	1000 to 10000 nM	31.6 to 1000 nM
CC(C)c1nc(-c2ccc(F)c(NS(=O)(=O)c3cc(F)ccc3F)c2)c(-c2ccnc(NCC3CCNCC3)n2)s1 [Example 128]	< 100 nM	3.16 to 31.6 nM	> 1000 nM	1000 to 10000 nM	> 1000 nM	–	–
CC(C)c1nc(-c2ccc(F)c(NS(=O)(=O)c3cc(F)ccc3F)c2)c(-c2ccnc(NCC3CCN(S(C)(=O)=O)CC3)n2)s1 [Example 129]	< 100 nM	3.16 to 31.6 nM	100 to 1000 nM	100 to 1000 nM	100 to 1000 nM	100 to 1000 nM	–
CC(C)(C)c1nc(-c2cccc(NS(=O)(=O)c3cc(F)ccc3F)c2F)c(-c2ccnc(NC3CCN(S(C)(=O)=O)CC3)n2)s1 [Example 130]	< 100 nM	–	< 100 nM	< 100 nM	< 100 nM	< 100 nM	≤ 3.16 nM
CC(C)c1nc(-c2ccc(F)c(NS(=O)(=O)c3cc(F)ccc3F)c2)c(-c2ccnc(NCCN3CCCCC3)n2)s1 [Example 131]	< 100 nM	–	> 1000 nM	–	> 1000 nM	1000 to 10000 nM	31.6 to 1000 nM
